ChEMBL document CHEMBL3872213, “Synthesis and biological activity of furoxan derivatives against Mycobacterium tuberculosis” (Eur J Med Chem, 2016)
In brackets after ≈: the same amount, converted by molar mass.

What was measured:
[1] = tested on: Mycobacterium tuberculosis; test: microbe, parasite or virus in culture; settings: H37Rv ATCC 27294, 168 h
Description: Antitubercular activity against Mycobacterium tuberculosis H37Rv ATCC 27294 after 7 days by REMA method

[2] = Induction of nitric oxide production assessed as nitrite level at 10^-4M measured after 1 hr in presence 1:50 molar excess of L-cysteine by Griess reagent based spectrophotometer relative to control; assay type: physicochemical; settings: 100 µM
[3] = tested on: Mycobacterium tuberculosis; assay type: functional; settings: H37Rv ATCC 27294, 168 h
[4] = tested on: Mycobacterium tuberculosis; assay type: functional; settings: H37Rv ATCC 27294, 168 h; remark: listed apart in the source
in vitro [5] = settings: human, MRC5 cells
Description: Selectivity index, ratio of IC50 for human MRC5 cells to MIC90 for Mycobacterium tuberculosis H37Rv ATCC 27294

[6] = n-octanol-water partition coefficient, log P of the compound by HPLC method; assay type: physicochemical
in vitro [7] = settings: mouse, J774A.1 cells
Description: Selectivity index, ratio of IC50 for mouse J774A.1 cells to MIC90 for Mycobacterium tuberculosis H37Rv ATCC 27294

[8] = Cytotoxicity against mouse J774A.1 cells measured after 24 hrs by resazurin based fluorescence method; assay type: toxicity, J774.A1
[9] = Cytotoxicity against human MRC5 cells measured after 24 hrs by resazurin based fluorescence method; assay type: toxicity, cell-based
[10] = tested on: Mycobacterium tuberculosis; assay type: functional; settings: H37Rv
[11] = tested on: Mycobacterium tuberculosis; assay type: functional; settings: H37Rv ATCC 27294, 144 h
[12] = Chemical stability in pH 1 PBS buffer assessed as compound degradation after 1 hr by HPLC-MS/MS method; assay type: physicochemical; settings: read-out: Drug degradation
[13] = Chemical stability in pH 5 PBS buffer after 6 hrs by HPLC-MS/MS method; assay type: physicochemical; settings: pH 5, 6 h
[14] = Chemical stability in pH 7.4 PBS buffer assessed as compound degradation after 6 hrs by HPLC-MS/MS method; assay type: physicochemical; settings: read-out: Drug degradation
[15] = Chemical stability in pH 9 PBS buffer assessed as compound degradation after 1 hr by HPLC-MS/MS method; assay type: physicochemical; settings: read-out: Drug degradation
[16] = Chemical stability in pH 7.4 PBS buffer assessed as compound degradation after 24 hrs by HPLC-MS/MS method; assay type: physicochemical; settings: read-out: Drug degradation
[17] = Chemical stability in pH 5 PBS buffer assessed as compound degradation after 24 hrs by HPLC-MS/MS method; assay type: physicochemical; settings: read-out: Drug degradation

| SMILES | MIC90 [1] | Activity [2] | further results |
| --- | --- | --- | --- |
| O=C(NC(=S)N(c1ccccc1)c1ccccc1)c1ccccc1 | 25 µM (≈ 8.31 µg/mL) | – | – |
| Cc1c(Oc2ccc(C=O)cc2)no[n+]1[O-] | > 62 µM | 0% | – |
| O=Cc1cccc(Oc2no[n+]([O-])c2-c2ccccc2)c1 | > 62 µM | 23.1% | – |
| C/C(=N\NC(N)=S)c1ccccn1 | – | – | MIC90 [3]: 31.3 µM (≈ 6.08 µg/mL) |
| O=C(N/N=C/c1ccccc1Oc1no[n+]([O-])c1S(=O)(=O)c1ccccc1)c1ccncc1 | 8.6 µM (≈ 4 µg/mL) | 44.2% | MIC90 [4]: > 62 µM; selectivity ratio (in vitro [5]): 3.78; logP [6]: 2.2; selectivity ratio (in vitro [7]): 1.25; IC50 at 24 h [8]: 10.8 µM; IC50 at 24 h [9]: 34.4 µM |
| NC(=O)c1c(CBr)no[n+]1[O-] | 3 µM (≈ 0.666 µg/mL) | – | – |
| COc1ccc(/C=N/CC/N=C/c2ccc(OC)cc2)cc1 | 25 µM (≈ 7.41 µg/mL) | – | – |
| O=C(N/N=C/c1ccc(Oc2no[n+]([O-])c2-c2ccccc2)cc1)c1ccncc1 | 11.8 µM (≈ 4.74 µg/mL) | 7.33% | MIC90 [4]: > 62 µM; selectivity ratio (in vitro [5]): 52.7; logP [6]: 2.9; selectivity ratio (in vitro [7]): 34.8; IC50 at 24 h [8]: 409 µM; IC50 at 24 h [9]: 623 µM |
| c1csc(-c2nc3ccccc3s2)c1 | 50 µM (≈ 10.9 µg/mL) | – | – |
| O=C(N/N=C/c1ccc(O)cc1)c1ccncc1 | 1.04 µM (≈ 0.251 µg/mL) | – | MIC90 [10]: 1 µM (≈ 0.241 µg/mL) |
| Cc1c(Oc2ccc(/C=N/NC(=O)c3ccncc3)cc2)no[n+]1[O-] | > 62 µM | 2.02% | logP [6]: 1.3 |
| O=Cc1cccc(Oc2no[n+]([O-])c2S(=O)(=O)c2ccccc2)c1 | 20.9 µM (≈ 7.23 µg/mL) | 27.1% | selectivity ratio (in vitro [7]): 2; IC50 at 24 h [8]: 5.6 µM |
| CO[C@H]1/C=C/O[C@@]2(C)Oc3c(C)c(O)c4c(O)c(c(/C=N/N5CCN(C)CC5)c(O)c4c3C2=O)NC(=O)/C(C)=C\C=C\[C@H](C)[C@H](O)[C@@H](C)[C@@H](O)[C@@H](C)[C@H](OC(C)=O)[C@@H]1C [RIFAMPIN] | 0.5 µM (≈ 0.411 µg/mL) | 0% | – |
| CN(C)c1ccc(/C=N/c2ccc(O)cc2)cc1 | 15.6 µM (≈ 3.75 µg/mL) | – | – |
| Cc1c(Oc2ccccc2/C=N/NC(=O)c2ccncc2)no[n+]1[O-] | > 62 µM | 0.35% | logP [6]: 1.4 |
| O=C(N/N=C/c1ccccc1O)c1ccncc1 [SALINAZID] | 12.4 µM (≈ 3 µg/mL) | – | – |
| NC[C@H]1O[C@H](O[C@H]2[C@H](O)[C@@H](O[C@H]3O[C@H](CO)[C@@H](O)[C@H](N)[C@H]3O)[C@H](N)C[C@@H]2N)[C@H](O)[C@@H](O)[C@@H]1O [KANAMYCIN] | – | – | MIC90 [10]: 3.4 µM (≈ 1.65 µg/mL) |
| O=Cc1ccc(Oc2no[n+]([O-])c2-c2ccccc2)cc1 | > 62 µM | 19.4% | – |
| NC(=O)c1cnccn1 [PYRAZINAMIDE] | – | – | MIC90 [10]: > 48 µM |
| NNC(=O)c1ccncc1 [ISONIAZID] | 0.11 µM (≈ 0.0151 µg/mL) | 0% | – |
| CCCCN(CCCC)C(=S)NC(=O)c1ccccc1 | 25 µM (≈ 7.31 µg/mL) | – | – |
| O=C(N/N=C/c1cccc(Oc2no[n+]([O-])c2S(=O)(=O)c2ccccc2)c1)c1ccncc1 | 1.61 µM (≈ 0.749 µg/mL) | 38.5% | MIC90 [4]: > 62 µM; selectivity ratio (in vitro [5]): 14.1; logP [6]: 2.3; selectivity ratio (in vitro [7]): 3; IC50 at 24 h [8]: 4.3 µM; IC50 at 24 h [9]: 30.1 µM |
| CNC(=S)N/N=C(\C)c1ccccn1 | – | – | MIC90 [3]: 7.8 µM (≈ 1.62 µg/mL) |

| SMILES | MIC90 [1] | Activity [2] | further results |
| --- | --- | --- | --- |
| O=Cc1ccccc1Oc1no[n+]([O-])c1S(=O)(=O)c1ccccc1 | 20.2 µM (≈ 7.01 µg/mL) | 21.2% | selectivity ratio (in vitro [7]): 0.4; IC50 at 24 h [8]: 7.4 µM |
| CC(C)COC(=O)c1cnccn1 | – | – | MIC90 [11]: 2 µM (≈ 0.36 µg/mL) |
| O=[N+]([O-])O[C@H]1CO[C@H]2[C@@H]1OC[C@H]2O[N+](=O)[O-] [ISOSORBIDE DINITRATE] | – | 7.17 to 7.5 mol/mol | – |
| COc1cc(/C=N/c2ccc(O)cc2)cc(OC)c1OC | 15.6 µM (≈ 4.48 µg/mL) | – | – |
| O=C(N/N=C/c1ccc(Oc2no[n+]([O-])c2S(=O)(=O)c2ccccc2)cc1)c1ccncc1 | 1.03 µM (≈ 0.479 µg/mL) | 43.5% | degraded at 1 h [12]: 90%; MIC90 [4]: > 62 µM; selectivity ratio (in vitro [5]): 20.3; logP [6]: 2.1; Stability [13]: Stable; degraded at 6 h [14]: 15%; selectivity ratio (in vitro [7]): 12; IC50 at 24 h [8]: 10.8 µM; degraded at 1 h [15]: 50%; IC50 at 24 h [9]: 43 µM; degraded at 24 h [16]: 20%; degraded at 24 h [17]: 20% |
| O=[N+]([O-])c1ccc(/C=N/c2ccc(O)cc2)cc1 | 15.6 µM (≈ 3.78 µg/mL) | – | – |
| CN(C)C(=S)NC(=O)c1ccccc1 | 25 µM (≈ 5.21 µg/mL) | – | – |
| Cc1c(Oc2cccc(/C=N/NC(=O)c3ccncc3)c2)no[n+]1[O-] | > 62 µM | 0.16% | logP [6]: 1.3 |
| O=C(N/N=C/c1cccc(Oc2no[n+]([O-])c2-c2ccccc2)c1)c1ccncc1 | > 62 µM | 6.87% | logP [6]: 2.9 |
| O=C(CC(=O)C(F)(F)F)c1ccccc1 | 9.61 µM (≈ 2.08 µg/mL) | – | – |
| O=S(=O)(c1ccccc1)c1no[n+]([O-])c1-c1ccccc1 | 82 µM (≈ 24.8 µg/mL) | – | – |
| O=S(=O)(c1ccccc1)c1no[n+]([O-])c1S(=O)(=O)c1ccccc1 | 6.2 µM (≈ 2.27 µg/mL) | – | – |
| O=C(CC(=O)C(F)(F)F)c1cccs1 | 10.9 µM (≈ 2.42 µg/mL) | – | – |
| O=Cc1ccccc1Oc1no[n+]([O-])c1-c1ccccc1 | > 62 µM | 25.1% | – |
| C/C(=N\NC(=S)Nc1ccccc1)c1ccccn1 | – | – | MIC90 [3]: 15.6 µM (≈ 4.22 µg/mL) |
| Cc1c(Oc2ccccc2C=O)no[n+]1[O-] | > 62 µM | 0% | – |
| Cc1c(Oc2cccc(C=O)c2)no[n+]1[O-] | > 62 µM | 0% | – |
| N[C@@H]1CONC1=O [CYCLOSERINE] | – | – | MIC90 [10]: 245 µM (≈ 25 µg/mL) |
| O=C(N/N=C/c1ccccc1Oc1no[n+]([O-])c1-c1ccccc1)c1ccncc1 | > 62 µM | 11.2% | logP [6]: 2.7 |
| O=Cc1ccc(Oc2no[n+]([O-])c2S(=O)(=O)c2ccccc2)cc1 | 26 µM (≈ 9.01 µg/mL) | 24.4% | selectivity ratio (in vitro [7]): 0.1; IC50 at 24 h [8]: 2.2 µM |
| O=C(N/N=C/c1cccc(O)c1)c1ccncc1 | 104 µM (≈ 25 µg/mL) | – | – |
| CCN(CC)C(=S)NC(=O)c1ccco1 | 25 µM (≈ 5.66 µg/mL) | – | – |
